In assay [1] the test system is human dopamine neurons generated from iPS cells. The assay is described as follows: Proteolysis by radioactive pulse-chase in human iPS dopamine neurons. The class given is cell-based. To be noted: wild-type neurons; 100 μM IFG 5 days, 1 day wash-out. Here is the method: (§1) In this Example, human dopamine neurons generated from iPS cells of an unaffected control were treated with a pharmacological chaperone activator of GCase polypeptide, isofagomine (IFG). […] Treatment of wild-type neurons with 100 μM IFG for 5 days followed by 1 day wash-out increased the levels of GCase polypeptide (FIGS. 15A and 15B). This increase was likely due to the fact that wild-type GCase polypeptide was occasionally misfolded in the ER and degraded (about 30% of the total made in the ER), and IFG appeared to also stabilize the wild-type misfolded forms.
In this Example, it was further determined if the effects discussed above could also be replicated with non-native site binding compounds that can act as allosteric activators of GCase polypeptide, and therefore unlike IFG, would not require a washout to activate GCase polypeptide. […]
Proteolysis of long-lived proteins was determined by radioactive pulse-chase using ^3H-leucine. […] Samples were centrifuged at 20,000×g for 20 min, 4° C., and the radioactivity was measured in 5 ml of scintillation cocktail using a Beckman LS 1701 liquid scintillation counter (Beckman Instruments). Precipitated protein pellets were extracted in 200 μl of Na deoxycholate, 0.1 M NaOH, and radioactivity was determined. Percent proteolysis was calculated as described in detail elsewhere (Kaushik et al. Methods Enzymol. 452: 297, 2009). […]

In assay [2] the target is T1, GCase polypeptide (Homo sapiens, UniProt P04062).
T1 construct: endogenous in cells; host or cells: human iPS-derived midbrain dopamine neurons (healthy control; PD patient with SNCA triplication, Coriell ND27760)
T1 sequence (P04062 40-536): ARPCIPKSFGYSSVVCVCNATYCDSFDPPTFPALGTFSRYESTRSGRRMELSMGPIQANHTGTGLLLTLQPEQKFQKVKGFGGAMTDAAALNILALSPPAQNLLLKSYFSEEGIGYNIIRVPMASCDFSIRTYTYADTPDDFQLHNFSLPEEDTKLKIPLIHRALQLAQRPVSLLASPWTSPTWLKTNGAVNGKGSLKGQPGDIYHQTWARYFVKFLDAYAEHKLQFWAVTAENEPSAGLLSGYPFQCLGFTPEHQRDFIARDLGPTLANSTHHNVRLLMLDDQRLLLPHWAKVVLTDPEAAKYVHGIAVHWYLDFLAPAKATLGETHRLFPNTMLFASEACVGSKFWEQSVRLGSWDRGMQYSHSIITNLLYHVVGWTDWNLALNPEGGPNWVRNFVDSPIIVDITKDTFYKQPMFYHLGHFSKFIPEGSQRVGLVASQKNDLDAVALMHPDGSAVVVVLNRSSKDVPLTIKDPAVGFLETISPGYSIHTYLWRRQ
The assay is described as follows: GCase polypeptide levels and post-ER forms by western blot in human iPS dopamine neurons. The class given is cell-based. Particulars: wild-type neurons from an unaffected control; 100 μM IFG for 5 days followed by 1 day wash-out. Here is the method: as §1
It was also shown in this Example that treatment with the GCase polypeptide activator increased the levels of total GCase protein and increased the post-ER forms, indicating enhancement of flux to the lysosome (FIG. 19B).
In this Example, the effect of combining the GCase polypeptide pharmacological chaperone IFG with the antioxidant n-acetyl-cysteine (NAC) on GCase polypeptide maturation in PD iPS neurons was tested. Neurons were treated with either IFG, NAC, or IFG and NAC together, and GCase polypeptide maturation was analyzed by western blot.
Most materials for SDS-PAGE were obtained from Invitrogen (NuPAGE system). Protein lysates were boiled in sample buffer (20 mM Tris, 1% (v/v) glycerol, 180 mM β-mercaptoethanol, 0.003% (w/v) bromophenol blue, 2% (w/v) SDS, pH 6.8), resolved on 4%-12% Bis-Tris polyacrylamide precast gels in a MOPS-SDS running buffer, or 4%-12% Tris-Glycine gels. 10% Tris-Glycine gels were utilized for some GCase polypeptide western blot's (FIGS. 13B, 13D, and 13E, and FIGS. 14C and 14F). […] Blots were blocked in Odyssey blocking buffer (Li-Cor biosciences) containing 0.05% Tween, or 5% non-fat dry milk in TBS-T 0.2%, followed by incubation with primary antibodies (see above for dilutions), and detected with anti-mouse or -rabbit IgG conjugated to IRDye 680 or 800 (1:10,000, Li-Cor biosciences). […] Any nonspecific bands detected were not included in densitometric analyses. […]

On to `OC[C@H]1CNC[C@@H](O)[C@@H]1O` [IFG, isofagomine], for which the “Proteolysis rate, fold increase compared to controls” value in assay [1] is listed as 3 fold. Besides, the “levels of GCase polypeptide” value in assay [2] is listed as “increased”.

Values taken from US9845327B2, “Treatment of proteinopathies” (THE GENERAL HOSPITAL CORPORATION, priority 2011, dated 2017).
